Results from ChEMBL document CHEMBL3991601, “The target landscape of clinical kinase drugs” (Science, 2017).
The source made the active and inactive calls.

Biological target: T1, UMP-CMP kinase (Homo sapiens, UniProt P30085)
T1 sequence (P30085 whole entry): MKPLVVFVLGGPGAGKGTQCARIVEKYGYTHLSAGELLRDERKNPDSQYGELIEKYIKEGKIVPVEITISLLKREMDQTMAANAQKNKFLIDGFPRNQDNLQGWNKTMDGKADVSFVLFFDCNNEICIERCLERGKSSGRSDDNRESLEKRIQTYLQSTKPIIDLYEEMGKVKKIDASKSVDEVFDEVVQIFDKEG
Details: not given
Also: in the data inactive means no Kd found up to 30 µM.

SMILES | Kd
CN1CC[C@@H](c2c(O)cc(O)c3c(=O)cc(-c4ccccc4Cl)oc23)[C@@H]1CO | > 30 µM (inactive)
Cc1ccc(NC(=O)c2ccc(CN3CC[C@H](N(C)C)C3)c(C(F)(F)F)c2)cc1Nc1nccc(-c2cncnc2)n1 [BAFETINIB] | > 30 µM (inactive)
CCS(=O)(=O)N1CC(CC#N)(n2cc(-c3ncnc4[nH]ccc34)cn2)C1 [BARICITINIB] | > 30 µM (inactive)
Cc1cc2c(F)c(Oc3ncnn4cc(OC[C@@H](C)OC(=O)[C@H](C)N)c(C)c34)ccc2[nH]1 [BRIVANIB ALANINATE] | > 30 µM (inactive)

Biological target: Serine/threonine-protein kinase pim-2 (Homo sapiens, UniProt Q9P1W9)
Sequence (Q9P1W9 whole entry): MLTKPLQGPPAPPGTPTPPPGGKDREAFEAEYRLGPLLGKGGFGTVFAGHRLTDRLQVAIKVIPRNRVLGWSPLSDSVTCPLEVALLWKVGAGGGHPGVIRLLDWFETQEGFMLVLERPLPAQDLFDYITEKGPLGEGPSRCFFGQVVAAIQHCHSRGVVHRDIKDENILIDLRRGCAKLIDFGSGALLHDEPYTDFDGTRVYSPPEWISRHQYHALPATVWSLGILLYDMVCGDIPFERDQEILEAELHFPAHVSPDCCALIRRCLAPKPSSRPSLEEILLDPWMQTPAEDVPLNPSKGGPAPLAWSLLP
Details: not given

SMILES | Kd
CN1CC[C@@H](c2c(O)cc(O)c3c(=O)cc(-c4ccccc4Cl)oc23)[C@@H]1CO | > 30 µM (inactive)
Cc1ccc(NC(=O)c2ccc(CN3CC[C@H](N(C)C)C3)c(C(F)(F)F)c2)cc1Nc1nccc(-c2cncnc2)n1 [BAFETINIB] | > 30 µM (inactive)
Cc1cc2c(F)c(Oc3ncnn4cc(OC[C@@H](C)OC(=O)[C@H](C)N)c(C)c34)ccc2[nH]1 [BRIVANIB ALANINATE] | > 30 µM (inactive)

Biological target: T2, Ephrin type-A receptor 1 (Homo sapiens, UniProt P21709)
T2 sequence (P21709 whole entry): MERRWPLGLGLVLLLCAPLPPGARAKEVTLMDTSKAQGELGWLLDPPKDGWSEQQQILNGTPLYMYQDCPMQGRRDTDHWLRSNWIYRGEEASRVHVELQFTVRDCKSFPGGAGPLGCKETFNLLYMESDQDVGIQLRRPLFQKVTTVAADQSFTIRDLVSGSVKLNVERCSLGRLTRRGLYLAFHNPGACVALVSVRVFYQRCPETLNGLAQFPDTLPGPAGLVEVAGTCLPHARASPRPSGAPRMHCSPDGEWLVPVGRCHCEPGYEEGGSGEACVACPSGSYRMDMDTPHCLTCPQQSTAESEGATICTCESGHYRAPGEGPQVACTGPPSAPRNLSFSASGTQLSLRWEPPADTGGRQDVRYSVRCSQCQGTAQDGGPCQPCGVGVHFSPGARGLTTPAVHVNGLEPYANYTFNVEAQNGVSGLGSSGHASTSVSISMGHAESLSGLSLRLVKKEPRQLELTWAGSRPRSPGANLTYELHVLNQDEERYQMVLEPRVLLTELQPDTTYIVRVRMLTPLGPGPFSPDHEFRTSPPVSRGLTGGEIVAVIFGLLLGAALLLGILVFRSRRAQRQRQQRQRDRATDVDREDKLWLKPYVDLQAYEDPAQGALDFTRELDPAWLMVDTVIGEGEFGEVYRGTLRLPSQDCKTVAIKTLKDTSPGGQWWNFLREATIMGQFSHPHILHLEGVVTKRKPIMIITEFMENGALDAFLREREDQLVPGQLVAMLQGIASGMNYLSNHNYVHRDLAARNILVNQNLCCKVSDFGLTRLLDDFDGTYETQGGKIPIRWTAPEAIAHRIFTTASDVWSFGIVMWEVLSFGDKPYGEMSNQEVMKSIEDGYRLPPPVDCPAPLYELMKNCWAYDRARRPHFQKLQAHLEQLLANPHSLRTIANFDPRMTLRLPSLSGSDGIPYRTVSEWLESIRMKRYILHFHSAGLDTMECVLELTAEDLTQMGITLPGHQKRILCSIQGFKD
Details: not given

SMILES | Kd
CN1CC[C@@H](c2c(O)cc(O)c3c(=O)cc(-c4ccccc4Cl)oc23)[C@@H]1CO | > 30 µM (inactive)
Cc1ccc(NC(=O)c2ccc(CN3CC[C@H](N(C)C)C3)c(C(F)(F)F)c2)cc1Nc1nccc(-c2cncnc2)n1 [BAFETINIB] | > 30 µM (inactive)
CCS(=O)(=O)N1CC(CC#N)(n2cc(-c3ncnc4[nH]ccc34)cn2)C1 [BARICITINIB] | > 30 µM (inactive)
Cc1cc2c(F)c(Oc3ncnn4cc(OC[C@@H](C)OC(=O)[C@H](C)N)c(C)c34)ccc2[nH]1 [BRIVANIB ALANINATE] | > 30 µM (inactive)

Biological target: Membrane-associated progesterone receptor component 1 (Homo sapiens, UniProt O00264)
Details: not given

SMILES | Kd
Cc1ccc(NC(=O)c2ccc(CN3CC[C@H](N(C)C)C3)c(C(F)(F)F)c2)cc1Nc1nccc(-c2cncnc2)n1 [BAFETINIB] | > 30 µM (inactive)
CCS(=O)(=O)N1CC(CC#N)(n2cc(-c3ncnc4[nH]ccc34)cn2)C1 [BARICITINIB] | > 30 µM (inactive)

Biological target: Serine/threonine-protein kinase PAK 6 (Homo sapiens, UniProt Q9NQU5)
Sequence (Q9NQU5 whole entry): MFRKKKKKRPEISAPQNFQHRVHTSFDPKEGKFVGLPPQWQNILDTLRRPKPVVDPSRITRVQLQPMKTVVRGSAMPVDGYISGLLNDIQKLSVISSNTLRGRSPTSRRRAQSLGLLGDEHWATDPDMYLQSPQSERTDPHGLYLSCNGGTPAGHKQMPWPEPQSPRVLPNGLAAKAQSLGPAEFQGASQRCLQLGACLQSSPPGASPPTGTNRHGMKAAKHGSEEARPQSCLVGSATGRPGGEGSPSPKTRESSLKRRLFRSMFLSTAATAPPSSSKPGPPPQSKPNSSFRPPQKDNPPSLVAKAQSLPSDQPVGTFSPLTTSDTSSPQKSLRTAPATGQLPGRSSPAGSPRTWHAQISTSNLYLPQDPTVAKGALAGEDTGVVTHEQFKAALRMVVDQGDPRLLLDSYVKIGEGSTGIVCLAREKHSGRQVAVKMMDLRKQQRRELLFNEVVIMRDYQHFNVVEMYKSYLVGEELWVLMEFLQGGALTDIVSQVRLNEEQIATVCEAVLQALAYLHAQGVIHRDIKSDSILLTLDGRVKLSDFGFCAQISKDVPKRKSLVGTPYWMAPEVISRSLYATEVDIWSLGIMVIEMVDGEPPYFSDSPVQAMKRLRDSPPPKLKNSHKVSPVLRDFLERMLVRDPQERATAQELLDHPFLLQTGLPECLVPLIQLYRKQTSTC
Details: not given

SMILES | Kd
CN1CC[C@@H](c2c(O)cc(O)c3c(=O)cc(-c4ccccc4Cl)oc23)[C@@H]1CO | > 30 µM (inactive)
CCS(=O)(=O)N1CC(CC#N)(n2cc(-c3ncnc4[nH]ccc34)cn2)C1 [BARICITINIB] | > 30 µM (inactive)
Cc1cc2c(F)c(Oc3ncnn4cc(OC[C@@H](C)OC(=O)[C@H](C)N)c(C)c34)ccc2[nH]1 [BRIVANIB ALANINATE] | > 30 µM (inactive)

Biological target: Serine/threonine-protein kinase 38-like (Homo sapiens, UniProt Q9Y2H1)
Sequence (Q9Y2H1 whole entry): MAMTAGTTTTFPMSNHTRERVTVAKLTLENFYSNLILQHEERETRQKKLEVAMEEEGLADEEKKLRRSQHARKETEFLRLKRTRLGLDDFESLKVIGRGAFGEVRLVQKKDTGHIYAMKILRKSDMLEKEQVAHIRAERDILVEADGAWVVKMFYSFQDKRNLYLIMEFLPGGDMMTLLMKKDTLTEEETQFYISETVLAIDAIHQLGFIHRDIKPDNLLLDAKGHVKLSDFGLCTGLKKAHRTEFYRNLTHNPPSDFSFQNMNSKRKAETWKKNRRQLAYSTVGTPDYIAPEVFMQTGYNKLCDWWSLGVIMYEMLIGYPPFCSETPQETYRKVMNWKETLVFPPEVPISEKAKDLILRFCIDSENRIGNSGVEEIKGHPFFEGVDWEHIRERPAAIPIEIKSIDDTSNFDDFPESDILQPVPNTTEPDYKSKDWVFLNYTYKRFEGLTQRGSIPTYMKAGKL
Details: not given

SMILES | Kd
CN1CC[C@@H](c2c(O)cc(O)c3c(=O)cc(-c4ccccc4Cl)oc23)[C@@H]1CO | > 30 µM (inactive)
Cc1ccc(NC(=O)c2ccc(CN3CC[C@H](N(C)C)C3)c(C(F)(F)F)c2)cc1Nc1nccc(-c2cncnc2)n1 [BAFETINIB] | > 30 µM (inactive)
CCS(=O)(=O)N1CC(CC#N)(n2cc(-c3ncnc4[nH]ccc34)cn2)C1 [BARICITINIB] | > 30 µM (inactive)
Cc1cc2c(F)c(Oc3ncnn4cc(OC[C@@H](C)OC(=O)[C@H](C)N)c(C)c34)ccc2[nH]1 [BRIVANIB ALANINATE] | > 30 µM (inactive)

Biological target: Ephrin type-A receptor 7 (Homo sapiens, UniProt Q15375)
Sequence (Q15375 whole entry): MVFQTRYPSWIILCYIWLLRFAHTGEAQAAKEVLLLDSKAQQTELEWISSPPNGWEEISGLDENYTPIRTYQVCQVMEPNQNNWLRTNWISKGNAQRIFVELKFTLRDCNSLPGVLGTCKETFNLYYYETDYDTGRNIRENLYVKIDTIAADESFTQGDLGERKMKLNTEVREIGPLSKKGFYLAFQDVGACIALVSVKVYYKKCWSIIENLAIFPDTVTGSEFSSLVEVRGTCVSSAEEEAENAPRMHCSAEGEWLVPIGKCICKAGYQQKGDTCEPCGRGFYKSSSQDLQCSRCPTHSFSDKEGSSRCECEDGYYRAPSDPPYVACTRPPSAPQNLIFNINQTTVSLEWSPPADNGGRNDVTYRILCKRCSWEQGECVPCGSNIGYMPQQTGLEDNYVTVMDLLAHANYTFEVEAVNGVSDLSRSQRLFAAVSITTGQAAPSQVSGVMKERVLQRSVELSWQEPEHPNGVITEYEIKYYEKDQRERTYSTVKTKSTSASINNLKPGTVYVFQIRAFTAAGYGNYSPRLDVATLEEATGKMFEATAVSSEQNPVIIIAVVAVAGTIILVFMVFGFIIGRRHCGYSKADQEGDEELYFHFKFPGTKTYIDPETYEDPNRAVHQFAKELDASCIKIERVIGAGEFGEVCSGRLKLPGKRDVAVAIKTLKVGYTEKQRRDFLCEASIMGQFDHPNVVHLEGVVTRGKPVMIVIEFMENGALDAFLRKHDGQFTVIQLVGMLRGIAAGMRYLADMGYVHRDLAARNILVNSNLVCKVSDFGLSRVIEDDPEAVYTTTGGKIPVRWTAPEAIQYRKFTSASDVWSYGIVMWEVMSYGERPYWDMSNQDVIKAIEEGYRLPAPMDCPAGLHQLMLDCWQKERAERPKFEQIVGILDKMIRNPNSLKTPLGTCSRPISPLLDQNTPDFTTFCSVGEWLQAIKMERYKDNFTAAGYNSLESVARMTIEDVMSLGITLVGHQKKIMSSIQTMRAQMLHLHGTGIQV
Details: not given

SMILES | Kd
CN1CC[C@@H](c2c(O)cc(O)c3c(=O)cc(-c4ccccc4Cl)oc23)[C@@H]1CO | > 30 µM (inactive)
Cc1ccc(NC(=O)c2ccc(CN3CC[C@H](N(C)C)C3)c(C(F)(F)F)c2)cc1Nc1nccc(-c2cncnc2)n1 [BAFETINIB] | > 30 µM (inactive)
CCS(=O)(=O)N1CC(CC#N)(n2cc(-c3ncnc4[nH]ccc34)cn2)C1 [BARICITINIB] | > 30 µM (inactive)
Cc1cc2c(F)c(Oc3ncnn4cc(OC[C@@H](C)OC(=O)[C@H](C)N)c(C)c34)ccc2[nH]1 [BRIVANIB ALANINATE] | > 30 µM (inactive)

Biological target: High affinity nerve growth factor receptor (Homo sapiens, UniProt P04629)
Details: not given

SMILES | Kd
CN1CC[C@@H](c2c(O)cc(O)c3c(=O)cc(-c4ccccc4Cl)oc23)[C@@H]1CO | > 30 µM (inactive)
Cc1ccc(NC(=O)c2ccc(CN3CC[C@H](N(C)C)C3)c(C(F)(F)F)c2)cc1Nc1nccc(-c2cncnc2)n1 [BAFETINIB] | > 30 µM (inactive)
Cc1cc2c(F)c(Oc3ncnn4cc(OC[C@@H](C)OC(=O)[C@H](C)N)c(C)c34)ccc2[nH]1 [BRIVANIB ALANINATE] | > 30 µM (inactive)

Biological target: Dual specificity testis-specific protein kinase 1 (Homo sapiens, UniProt Q15569)
Sequence (Q15569 whole entry): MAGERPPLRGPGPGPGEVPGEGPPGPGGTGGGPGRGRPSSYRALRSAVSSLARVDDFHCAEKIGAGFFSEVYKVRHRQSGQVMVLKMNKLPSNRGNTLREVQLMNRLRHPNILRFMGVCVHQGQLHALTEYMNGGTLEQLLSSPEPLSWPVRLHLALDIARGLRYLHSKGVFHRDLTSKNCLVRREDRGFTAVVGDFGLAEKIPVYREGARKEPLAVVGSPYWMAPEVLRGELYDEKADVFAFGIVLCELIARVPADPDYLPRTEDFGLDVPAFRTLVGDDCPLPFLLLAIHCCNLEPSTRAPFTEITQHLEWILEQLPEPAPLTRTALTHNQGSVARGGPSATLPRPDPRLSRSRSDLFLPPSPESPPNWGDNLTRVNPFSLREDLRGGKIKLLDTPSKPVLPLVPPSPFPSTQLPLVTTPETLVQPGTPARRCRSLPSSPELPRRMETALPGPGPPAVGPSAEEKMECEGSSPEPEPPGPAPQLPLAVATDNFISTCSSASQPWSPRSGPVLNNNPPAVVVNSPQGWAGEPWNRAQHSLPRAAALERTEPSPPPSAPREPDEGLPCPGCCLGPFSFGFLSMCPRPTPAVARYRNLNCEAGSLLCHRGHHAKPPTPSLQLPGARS
Details: not given

SMILES | Kd
CN1CC[C@@H](c2c(O)cc(O)c3c(=O)cc(-c4ccccc4Cl)oc23)[C@@H]1CO | > 30 µM (inactive)
Cc1ccc(NC(=O)c2ccc(CN3CC[C@H](N(C)C)C3)c(C(F)(F)F)c2)cc1Nc1nccc(-c2cncnc2)n1 [BAFETINIB] | > 30 µM (inactive)
CCS(=O)(=O)N1CC(CC#N)(n2cc(-c3ncnc4[nH]ccc34)cn2)C1 [BARICITINIB] | > 30 µM (inactive)
Cc1cc2c(F)c(Oc3ncnn4cc(OC[C@@H](C)OC(=O)[C@H](C)N)c(C)c34)ccc2[nH]1 [BRIVANIB ALANINATE] | > 30 µM (inactive)

Biological target: Dual specificity protein kinase CLK3 (Homo sapiens, UniProt P49761)
Sequence (P49761 whole entry): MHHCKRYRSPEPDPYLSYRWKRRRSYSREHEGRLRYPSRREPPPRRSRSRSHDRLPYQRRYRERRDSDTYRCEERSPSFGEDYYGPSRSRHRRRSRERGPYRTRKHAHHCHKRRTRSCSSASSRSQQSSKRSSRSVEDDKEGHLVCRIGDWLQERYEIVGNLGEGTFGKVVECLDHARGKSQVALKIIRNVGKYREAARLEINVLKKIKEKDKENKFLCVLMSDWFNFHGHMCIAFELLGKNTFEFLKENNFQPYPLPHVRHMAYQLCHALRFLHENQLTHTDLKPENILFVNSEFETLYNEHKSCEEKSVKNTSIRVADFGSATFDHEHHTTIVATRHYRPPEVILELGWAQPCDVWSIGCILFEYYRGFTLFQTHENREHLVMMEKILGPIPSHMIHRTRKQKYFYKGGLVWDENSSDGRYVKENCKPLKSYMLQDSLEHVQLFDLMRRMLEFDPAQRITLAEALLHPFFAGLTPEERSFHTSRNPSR
Format: subcellular, K-562, COLO 205, SK-N-BE(2) and MV-4-11, Cell lysate
Details: read-out: Kd apparent

SMILES | Kd
CN1CC[C@@H](c2c(O)cc(O)c3c(=O)cc(-c4ccccc4Cl)oc23)[C@@H]1CO | > 30 µM (inactive)
Cc1ccc(NC(=O)c2ccc(CN3CC[C@H](N(C)C)C3)c(C(F)(F)F)c2)cc1Nc1nccc(-c2cncnc2)n1 [BAFETINIB] | > 30 µM (inactive)
CCS(=O)(=O)N1CC(CC#N)(n2cc(-c3ncnc4[nH]ccc34)cn2)C1 [BARICITINIB] | > 30 µM (inactive)
Cc1cc2c(F)c(Oc3ncnn4cc(OC[C@@H](C)OC(=O)[C@H](C)N)c(C)c34)ccc2[nH]1 [BRIVANIB ALANINATE] | > 30 µM (inactive)

Biological target: Cell division cycle 7-related protein kinase (Homo sapiens, UniProt O00311)
Details: not given

SMILES | Kd
CN1CC[C@@H](c2c(O)cc(O)c3c(=O)cc(-c4ccccc4Cl)oc23)[C@@H]1CO | > 30 µM (inactive)

Biological target: T3, Inhibitor of nuclear factor kappa-B kinase subunit epsilon (Homo sapiens, UniProt Q14164)
T3 sequence (Q14164 whole entry): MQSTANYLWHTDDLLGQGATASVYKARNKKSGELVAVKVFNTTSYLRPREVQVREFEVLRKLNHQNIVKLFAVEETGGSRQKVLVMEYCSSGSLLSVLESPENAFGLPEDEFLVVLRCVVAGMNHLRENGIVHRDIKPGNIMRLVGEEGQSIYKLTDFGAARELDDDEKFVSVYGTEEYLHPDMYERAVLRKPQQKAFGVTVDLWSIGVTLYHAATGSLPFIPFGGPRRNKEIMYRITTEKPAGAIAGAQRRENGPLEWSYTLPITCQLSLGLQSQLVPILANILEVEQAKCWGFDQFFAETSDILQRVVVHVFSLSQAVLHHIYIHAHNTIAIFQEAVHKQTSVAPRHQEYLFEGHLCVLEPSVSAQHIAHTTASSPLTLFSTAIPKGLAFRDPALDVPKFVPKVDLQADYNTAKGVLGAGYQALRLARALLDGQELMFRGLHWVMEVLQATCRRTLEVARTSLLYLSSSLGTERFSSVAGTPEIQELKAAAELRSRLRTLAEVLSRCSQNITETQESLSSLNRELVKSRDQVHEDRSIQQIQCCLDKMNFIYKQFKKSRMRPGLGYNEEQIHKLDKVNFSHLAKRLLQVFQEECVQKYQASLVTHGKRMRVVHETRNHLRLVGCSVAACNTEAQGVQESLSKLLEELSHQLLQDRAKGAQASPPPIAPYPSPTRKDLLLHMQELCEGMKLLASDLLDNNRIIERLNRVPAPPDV
Details: not given

SMILES | Kd
CN1CC[C@@H](c2c(O)cc(O)c3c(=O)cc(-c4ccccc4Cl)oc23)[C@@H]1CO | > 30 µM (inactive)
Cc1ccc(NC(=O)c2ccc(CN3CC[C@H](N(C)C)C3)c(C(F)(F)F)c2)cc1Nc1nccc(-c2cncnc2)n1 [BAFETINIB] | > 30 µM (inactive)
CCS(=O)(=O)N1CC(CC#N)(n2cc(-c3ncnc4[nH]ccc34)cn2)C1 [BARICITINIB] | > 30 µM (inactive)
Cc1cc2c(F)c(Oc3ncnn4cc(OC[C@@H](C)OC(=O)[C@H](C)N)c(C)c34)ccc2[nH]1 [BRIVANIB ALANINATE] | > 30 µM (inactive)

Biological target: Hepatocyte growth factor receptor (Homo sapiens, UniProt P08581)
Sequence (P08581 whole entry): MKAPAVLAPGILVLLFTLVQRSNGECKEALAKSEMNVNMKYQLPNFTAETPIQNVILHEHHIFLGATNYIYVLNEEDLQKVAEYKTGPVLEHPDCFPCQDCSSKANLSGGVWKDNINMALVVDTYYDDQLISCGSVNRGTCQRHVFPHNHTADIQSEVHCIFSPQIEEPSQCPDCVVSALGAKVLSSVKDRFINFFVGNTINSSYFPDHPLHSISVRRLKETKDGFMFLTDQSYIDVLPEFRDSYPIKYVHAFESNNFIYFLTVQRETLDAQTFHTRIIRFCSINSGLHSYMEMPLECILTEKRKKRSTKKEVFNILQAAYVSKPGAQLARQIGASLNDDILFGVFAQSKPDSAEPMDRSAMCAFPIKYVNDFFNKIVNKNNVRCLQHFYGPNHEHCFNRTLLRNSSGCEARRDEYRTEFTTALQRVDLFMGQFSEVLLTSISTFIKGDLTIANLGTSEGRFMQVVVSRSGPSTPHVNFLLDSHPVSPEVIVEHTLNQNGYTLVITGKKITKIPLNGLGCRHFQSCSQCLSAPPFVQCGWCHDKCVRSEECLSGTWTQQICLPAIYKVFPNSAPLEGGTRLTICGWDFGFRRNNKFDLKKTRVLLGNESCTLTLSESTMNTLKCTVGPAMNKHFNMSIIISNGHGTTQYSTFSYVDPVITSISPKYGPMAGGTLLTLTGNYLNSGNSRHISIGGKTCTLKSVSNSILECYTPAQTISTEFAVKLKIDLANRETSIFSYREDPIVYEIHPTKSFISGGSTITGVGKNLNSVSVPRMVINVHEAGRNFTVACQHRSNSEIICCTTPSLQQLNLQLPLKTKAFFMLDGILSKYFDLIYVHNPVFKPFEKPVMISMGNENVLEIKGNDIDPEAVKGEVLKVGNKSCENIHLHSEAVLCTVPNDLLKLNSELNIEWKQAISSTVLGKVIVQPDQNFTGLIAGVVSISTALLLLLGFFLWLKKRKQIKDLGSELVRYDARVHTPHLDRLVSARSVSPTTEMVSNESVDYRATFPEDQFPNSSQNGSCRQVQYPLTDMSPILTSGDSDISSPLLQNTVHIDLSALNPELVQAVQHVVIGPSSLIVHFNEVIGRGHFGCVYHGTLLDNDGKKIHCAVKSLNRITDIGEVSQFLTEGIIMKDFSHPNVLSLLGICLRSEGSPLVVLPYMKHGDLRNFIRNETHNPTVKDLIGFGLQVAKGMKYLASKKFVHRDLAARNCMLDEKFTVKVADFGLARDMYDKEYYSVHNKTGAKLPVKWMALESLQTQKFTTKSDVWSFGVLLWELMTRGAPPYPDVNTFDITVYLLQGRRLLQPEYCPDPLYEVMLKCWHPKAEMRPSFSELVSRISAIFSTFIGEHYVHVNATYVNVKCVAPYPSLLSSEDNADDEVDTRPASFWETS
Details: not given

SMILES | Kd
CN1CC[C@@H](c2c(O)cc(O)c3c(=O)cc(-c4ccccc4Cl)oc23)[C@@H]1CO | 6.67 µM
Cc1ccc(NC(=O)c2ccc(CN3CC[C@H](N(C)C)C3)c(C(F)(F)F)c2)cc1Nc1nccc(-c2cncnc2)n1 [BAFETINIB] | > 30 µM (inactive)
CCS(=O)(=O)N1CC(CC#N)(n2cc(-c3ncnc4[nH]ccc34)cn2)C1 [BARICITINIB] | > 30 µM (inactive)
Cc1cc2c(F)c(Oc3ncnn4cc(OC[C@@H](C)OC(=O)[C@H](C)N)c(C)c34)ccc2[nH]1 [BRIVANIB ALANINATE] | > 30 µM (inactive)
